Series [1] has as its target Serine/threonine-protein kinase pim-3 (Homo sapiens, UniProt Q86V86). The series can be described thus: Inhibition of PIM3 (unknown origin) using FL-Peptide 1 (5-FAM-AKRRRLSSLRA-COOH) substrate incubated for 2 hrs by electrophoretic mobility shift assay.
The nature of series [2]: Growth inhibition of human PANC1 cells after 72 hrs by CCK-8 assay. The series is classed as functional, cell-based. The settings on record: PANC-1, 72 h. For orientation: Formazan colour is commonly taken as a measure of viable cells.
The next series concerns the target hERG (KCNH2) (Homo sapiens, UniProt Q12809). Nature of the series: Inhibition of human ERG at 10 uM by patch-clamp method.
Another series addresses T1, CYP1A2 (Homo sapiens, UniProt P05177).
T1 sequence (P05177 whole entry): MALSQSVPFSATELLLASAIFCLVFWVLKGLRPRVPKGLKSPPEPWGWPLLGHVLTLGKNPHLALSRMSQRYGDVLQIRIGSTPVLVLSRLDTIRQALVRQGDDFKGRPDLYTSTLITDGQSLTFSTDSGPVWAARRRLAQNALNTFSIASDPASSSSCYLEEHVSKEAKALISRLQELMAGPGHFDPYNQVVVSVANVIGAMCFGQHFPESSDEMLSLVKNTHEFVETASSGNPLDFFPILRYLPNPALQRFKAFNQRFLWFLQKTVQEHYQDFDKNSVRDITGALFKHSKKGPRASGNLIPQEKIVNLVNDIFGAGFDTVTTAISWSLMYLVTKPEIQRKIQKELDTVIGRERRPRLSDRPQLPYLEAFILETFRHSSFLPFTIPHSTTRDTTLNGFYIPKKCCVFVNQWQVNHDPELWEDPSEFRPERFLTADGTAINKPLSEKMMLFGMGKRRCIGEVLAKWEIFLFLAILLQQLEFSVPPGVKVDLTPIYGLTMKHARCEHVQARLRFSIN
The series can be described thus: Inhibition of CYP1A2 (unknown origin) at 10 uM. The series is classed as ADME.

For a further series, the target named is CYP2C9 (Homo sapiens, UniProt P11712). Nature of the series: Inhibition of CYP2C9 (unknown origin) at 10 uM. Type of series: ADME.
For another series, the target named is CYP2C19 (Homo sapiens, UniProt P33261). Nature of the series: Inhibition of CYP2C19 (unknown origin) at 10 uM. The series is classed as ADME.
Another series concerns the target CYP2D6 (Homo sapiens, UniProt P10635). Nature of the series: Inhibition of CYP2D6 (unknown origin) at 10 uM. The series is classed as ADME.
A further series concerns the target CYP3A4 (Homo sapiens, UniProt P08684). The series can be described thus: Inhibition of CYP3A4 (unknown origin) at 10 uM. Type of series: ADME.
Series [3] in a line: Aqueous solubility in PBS buffer solution at pH 7.4. The series is classed as physicochemical.
The target of series [4] is Serine/threonine-protein kinase pim-2 (Homo sapiens, UniProt Q9P1W9). Nature of the series: Inhibition of PIM2 (unknown origin) by electrophoretic mobility shift assay.
Series [5] addresses Receptor-type tyrosine-protein kinase FLT3 (Homo sapiens) (UniProt P36888). The series can be described thus: Inhibition of FLT3 (unknown origin) at 200 nM by electrophoretic mobility shift assay.
A short description of series [6]: Growth inhibition of human MIAPaCa2 cells after 72 hrs by CCK-8 assay. The series is classed as functional, cell-based. The settings on record: MIA PaCa-2, 72 h.
The nature of series [7]: Growth inhibition of human L3.6PL cells after 72 hrs by CCK-8 assay. The series is classed as functional.
Series [8] can be described thus: Growth inhibition of human PCI35 cells after 72 hrs by CCK-8 assay. Type of series: functional, cell-based. Conditions: PCI35, 72 h.
Series [9] is described as follows: Growth inhibition of human PCI66 cells after 72 hrs by CCK-8 assay. The series is classed as functional, cell-based. Conditions: PCI66, 72 h.
Series [10] can be described thus: Growth inhibition of human MIAPaCa2 cells at 10 uM after 72 hrs by CCK-8 assay. The settings on record: MIA PaCa-2, 72 h, read-out: GI. Type of series: functional.
The nature of series [11]: Growth inhibition of human PCI66 cells at 10 uM after 72 hrs by CCK-8 assay. The series is classed as functional. Conditions: PCI66, 72 h, read-out: GI.

Values after ≈ are worked out from the molar mass of the structure shown. Active and inactive are the calls of the source. The calls are words filed in the database; no cut-off is given here.

Chain of CYP2C9 (P11712 whole entry): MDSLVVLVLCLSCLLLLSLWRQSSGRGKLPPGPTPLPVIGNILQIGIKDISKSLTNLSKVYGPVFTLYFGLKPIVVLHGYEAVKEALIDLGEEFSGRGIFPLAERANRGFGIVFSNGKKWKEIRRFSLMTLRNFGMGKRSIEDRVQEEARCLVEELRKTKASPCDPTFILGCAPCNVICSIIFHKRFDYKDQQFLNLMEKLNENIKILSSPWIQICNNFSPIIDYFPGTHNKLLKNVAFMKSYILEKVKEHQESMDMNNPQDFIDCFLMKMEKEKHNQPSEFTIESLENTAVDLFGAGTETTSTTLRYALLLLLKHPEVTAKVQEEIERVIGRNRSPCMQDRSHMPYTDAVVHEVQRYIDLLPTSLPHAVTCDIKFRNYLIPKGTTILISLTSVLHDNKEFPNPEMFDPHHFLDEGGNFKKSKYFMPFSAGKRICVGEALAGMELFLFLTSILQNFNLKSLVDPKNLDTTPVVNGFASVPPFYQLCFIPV
Chain of hERG (KCNH2) (Q12809 whole entry): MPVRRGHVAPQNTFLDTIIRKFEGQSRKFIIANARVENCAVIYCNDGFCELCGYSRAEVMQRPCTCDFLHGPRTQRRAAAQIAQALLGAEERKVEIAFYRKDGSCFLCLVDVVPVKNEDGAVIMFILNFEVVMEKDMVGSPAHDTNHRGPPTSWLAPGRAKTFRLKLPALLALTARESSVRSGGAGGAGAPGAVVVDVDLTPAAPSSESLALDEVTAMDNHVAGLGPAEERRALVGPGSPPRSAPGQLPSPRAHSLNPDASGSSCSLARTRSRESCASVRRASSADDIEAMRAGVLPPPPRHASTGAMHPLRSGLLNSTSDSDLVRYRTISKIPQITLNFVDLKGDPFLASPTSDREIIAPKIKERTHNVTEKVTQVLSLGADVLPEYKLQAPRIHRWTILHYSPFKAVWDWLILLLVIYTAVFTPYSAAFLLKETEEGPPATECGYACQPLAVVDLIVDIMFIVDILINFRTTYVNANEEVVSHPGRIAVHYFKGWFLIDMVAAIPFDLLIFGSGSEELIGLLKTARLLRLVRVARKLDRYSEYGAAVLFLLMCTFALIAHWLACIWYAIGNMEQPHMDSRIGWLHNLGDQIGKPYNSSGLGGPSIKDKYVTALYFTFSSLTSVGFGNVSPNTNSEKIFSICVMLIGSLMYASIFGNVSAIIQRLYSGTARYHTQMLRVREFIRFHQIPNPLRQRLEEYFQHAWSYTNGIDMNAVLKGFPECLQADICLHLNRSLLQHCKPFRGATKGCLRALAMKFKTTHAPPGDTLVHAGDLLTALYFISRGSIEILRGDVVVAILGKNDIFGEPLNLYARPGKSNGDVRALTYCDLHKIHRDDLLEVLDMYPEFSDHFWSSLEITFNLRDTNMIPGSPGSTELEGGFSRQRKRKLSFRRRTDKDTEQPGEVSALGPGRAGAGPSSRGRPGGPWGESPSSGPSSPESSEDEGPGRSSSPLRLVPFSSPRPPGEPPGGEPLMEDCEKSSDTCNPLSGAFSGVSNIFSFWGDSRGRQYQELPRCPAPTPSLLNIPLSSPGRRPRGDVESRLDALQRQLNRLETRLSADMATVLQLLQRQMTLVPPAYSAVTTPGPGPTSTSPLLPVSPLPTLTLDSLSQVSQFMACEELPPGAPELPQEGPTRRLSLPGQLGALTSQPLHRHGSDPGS
Chain of CYP2C19 (P33261 whole entry): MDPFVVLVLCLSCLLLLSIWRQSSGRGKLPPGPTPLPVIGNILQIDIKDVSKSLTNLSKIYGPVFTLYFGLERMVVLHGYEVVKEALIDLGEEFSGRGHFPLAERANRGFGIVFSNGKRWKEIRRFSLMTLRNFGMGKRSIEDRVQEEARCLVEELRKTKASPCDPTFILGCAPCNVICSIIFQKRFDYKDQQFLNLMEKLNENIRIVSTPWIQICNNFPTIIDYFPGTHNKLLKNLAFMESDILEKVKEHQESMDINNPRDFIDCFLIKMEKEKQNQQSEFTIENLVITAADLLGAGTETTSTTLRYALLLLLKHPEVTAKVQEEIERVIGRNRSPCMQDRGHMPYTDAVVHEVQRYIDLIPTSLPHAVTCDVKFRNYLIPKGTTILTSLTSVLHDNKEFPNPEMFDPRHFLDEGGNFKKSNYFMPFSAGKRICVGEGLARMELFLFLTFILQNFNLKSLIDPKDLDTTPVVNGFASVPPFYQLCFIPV
Chain of Serine/threonine-protein kinase pim-2 (Q9P1W9 whole entry): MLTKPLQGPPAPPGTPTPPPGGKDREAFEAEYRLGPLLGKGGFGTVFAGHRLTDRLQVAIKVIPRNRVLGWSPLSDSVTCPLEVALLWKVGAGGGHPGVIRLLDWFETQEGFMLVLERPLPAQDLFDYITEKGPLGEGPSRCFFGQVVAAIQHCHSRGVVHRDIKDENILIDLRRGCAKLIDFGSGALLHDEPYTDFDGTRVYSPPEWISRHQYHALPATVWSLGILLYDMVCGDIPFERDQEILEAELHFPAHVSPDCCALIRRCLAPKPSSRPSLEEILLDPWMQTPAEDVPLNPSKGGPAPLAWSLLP
Chain of CYP3A4 (P08684 whole entry): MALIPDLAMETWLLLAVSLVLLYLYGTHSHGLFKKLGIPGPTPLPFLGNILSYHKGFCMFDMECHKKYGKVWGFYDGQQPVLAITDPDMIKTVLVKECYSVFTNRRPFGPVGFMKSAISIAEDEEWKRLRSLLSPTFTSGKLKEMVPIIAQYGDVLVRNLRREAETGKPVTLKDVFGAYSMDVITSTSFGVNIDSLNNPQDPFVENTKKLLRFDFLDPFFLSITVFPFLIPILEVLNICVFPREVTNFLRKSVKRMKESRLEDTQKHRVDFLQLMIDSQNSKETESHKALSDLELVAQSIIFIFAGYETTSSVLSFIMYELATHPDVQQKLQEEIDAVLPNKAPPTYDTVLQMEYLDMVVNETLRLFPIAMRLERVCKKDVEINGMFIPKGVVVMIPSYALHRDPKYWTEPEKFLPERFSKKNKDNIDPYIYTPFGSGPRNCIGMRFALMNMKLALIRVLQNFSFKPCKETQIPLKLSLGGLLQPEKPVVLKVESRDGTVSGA
Chain of Receptor-type tyrosine-protein kinase FLT3 (Homo sapiens) (P36888 whole entry): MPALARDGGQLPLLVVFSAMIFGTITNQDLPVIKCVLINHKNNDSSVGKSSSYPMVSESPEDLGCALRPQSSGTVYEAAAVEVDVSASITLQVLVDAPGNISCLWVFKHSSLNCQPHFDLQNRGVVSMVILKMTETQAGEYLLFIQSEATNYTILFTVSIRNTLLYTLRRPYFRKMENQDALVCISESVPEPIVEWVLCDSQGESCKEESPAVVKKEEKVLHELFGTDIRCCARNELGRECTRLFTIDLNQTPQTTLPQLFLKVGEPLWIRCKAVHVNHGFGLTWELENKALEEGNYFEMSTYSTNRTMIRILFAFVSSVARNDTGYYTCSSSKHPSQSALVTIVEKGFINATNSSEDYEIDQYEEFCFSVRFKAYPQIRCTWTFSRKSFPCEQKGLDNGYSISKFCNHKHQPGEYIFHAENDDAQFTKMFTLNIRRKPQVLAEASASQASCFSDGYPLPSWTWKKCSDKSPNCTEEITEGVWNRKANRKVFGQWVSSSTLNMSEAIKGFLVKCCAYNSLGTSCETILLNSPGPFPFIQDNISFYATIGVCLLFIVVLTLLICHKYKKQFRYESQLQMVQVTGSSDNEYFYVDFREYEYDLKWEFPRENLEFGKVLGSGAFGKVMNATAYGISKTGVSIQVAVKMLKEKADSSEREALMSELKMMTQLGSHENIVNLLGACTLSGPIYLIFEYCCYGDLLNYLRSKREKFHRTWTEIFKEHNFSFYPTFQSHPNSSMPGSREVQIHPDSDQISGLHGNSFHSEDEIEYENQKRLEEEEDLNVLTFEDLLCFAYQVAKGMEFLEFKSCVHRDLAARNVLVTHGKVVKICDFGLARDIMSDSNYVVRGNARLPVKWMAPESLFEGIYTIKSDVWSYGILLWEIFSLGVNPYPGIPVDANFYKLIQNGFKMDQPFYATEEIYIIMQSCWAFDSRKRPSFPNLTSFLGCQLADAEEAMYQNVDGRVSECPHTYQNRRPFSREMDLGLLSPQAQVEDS
Chain of CYP2D6 (P10635 whole entry): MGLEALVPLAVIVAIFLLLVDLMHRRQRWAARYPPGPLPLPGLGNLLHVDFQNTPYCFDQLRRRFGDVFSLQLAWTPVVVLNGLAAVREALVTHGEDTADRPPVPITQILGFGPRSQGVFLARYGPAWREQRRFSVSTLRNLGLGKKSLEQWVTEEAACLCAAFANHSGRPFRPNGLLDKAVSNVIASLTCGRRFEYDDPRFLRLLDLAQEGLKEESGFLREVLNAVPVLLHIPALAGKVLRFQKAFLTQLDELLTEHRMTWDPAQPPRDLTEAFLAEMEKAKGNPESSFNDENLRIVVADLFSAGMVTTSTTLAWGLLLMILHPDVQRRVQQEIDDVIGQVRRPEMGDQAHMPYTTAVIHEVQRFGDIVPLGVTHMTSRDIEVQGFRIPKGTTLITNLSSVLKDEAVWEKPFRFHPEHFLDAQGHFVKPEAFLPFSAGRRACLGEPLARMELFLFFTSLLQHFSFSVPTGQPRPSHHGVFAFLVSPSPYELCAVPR

The IC50 is the concentration at which inhibition is half-maximal. With `COc1ccc2c(c1CN1CCNCC1)O/C(=C\c1c[nH]c3cnccc13)C2=O`, the figures for the IC50 in series [1] and in [2] were 0.044 µM and > 10 µM, respectively.
The like results for `COc1ccc2c(c1CN1CCN[C@H](C)C1)O/C(=C\c1n[nH]c3ncccc13)C2=O` were, in that order, 0.004 µM and 8.4 µM.
The like results for `COc1ccc2c(c1CN1CCN[C@@H](C)C1)O/C(=C\c1n[nH]c3ncccc13)C2=O` were, in that order, 0.0008 µM and 6.9 µM.
As to `COc1ccc2c(c1CN1CCNC[C@@H]1C)O/C(=C\c1n[nH]c3ncccc13)C2=O`, the IC50 in series [1] was 0.0011 µM; in series [2], > 10 µM.
For `COc1ccc2c(c1CN1CCNC[C@H]1C)O/C(=C\c1n[nH]c3ncccc13)C2=O` the same measures were 0.018 µM and > 10 µM.
For `COc1ccc2c(c1CN1CCNCC1)O/C(=C\c1c[nH]c3ccncc13)C2=O` the same measures were 0.13 µM and > 10 µM.
The like results for `CC(c1c(OCCO)ccc2c1O/C(=C\c1n[nH]c3ncccc13)C2=O)N1CCNCC1` (centres undefined) were, in that order, 0.0064 µM and > 10 µM.
For the compound `COc1ccc2c(c1CN1CCNCC1)O/C(=C\c1c[nH]c3ncccc13)C2=O`, the IC50 in series [1] was 0.0013 µM; in series [2] it was 5.2 µM.
As a reminder, the inhibition is the percentage by which the read-out fell short of the control. As a reminder, the solubility is the concentration that dissolves in the medium under given conditions. Consider `COCCOc1ccc2c(c1C(C)N1CCNCC1)O/C(=C\c1n[nH]c3ncccc13)C2=O` (centres undefined), for which the IC50 in [1] came out at 0.003 µM; in series [2], 3.3 µM. Further, the inhibition at 10 µM is 16% against hERG (KCNH2); < 1% against CYP1A2; < 1% on CYP2C9; < 1% against CYP2C19; 83% against CYP2D6; < 1% on CYP3A4. This compound yielded a solubility in series [3] of 196 µM (≈ 88.1 µg/mL).
With `COc1ccc2c(c1CN1CCNCC1)O/C(=C\c1c[nH]c3cccnc13)C2=O`, the results for the IC50 in series [1] and in [2] were > 2 µM and > 10 µM, respectively.
`COc1ccc2c(c1CN1CCNCC1)O/C(=C\c1n[nH]c3ccccc13)C2=O`: the IC50 in series [4] was > 1 µM; in [1] it was 0.025 µM; in series [2] it was > 10 µM; in series [6] it was > 10 µM; in series [7], > 10 µM; in series [8] it was > 10 µM. Further, in series [9], the IC50 was > 10 µM. For the same compound, the inhibition entry in series [5] was “Active”. The inhibition at 10 µM against CYP2C9 was < 1%. Moreover, in series [3], the solubility was 187 µM (≈ 73 µg/mL).
As for `C#Cc1cccc(Nc2ncnc3cc(OCCOC)c(OCCOC)cc23)c1` [ERLOTINIB], the IC50 in [2] was 3.1 µM; in [6] it was > 10 µM; in series [7], 4 µM; in series [8] it was 7.7 µM; in series [9] it was > 10 µM. In addition, the figures for the inhibition of growth at 10 µM in series [10] and in series [11] were < 1% and 12%, respectively.

(Values after ChEMBL document CHEMBL3734671, “Design and synthesis of an in vivo-efficacious PIM3 kinase inhibitor as a candidate anti-pancreatic cancer agent” (Bioorg Med Chem Lett, 2015).)
